Reference: patent US8114885B2, “Chemical compounds” (GlaxoSmithKline LLC, priority 2000, dated 2012)

tested on: HUVEC; experiment: Human Umbilical Vein Endothelial Cell (HUVEC) proliferation assay (BrdU incorporation); format: cell-based; conditions: VEGF-stimulated HUVEC, 72 hrs, read-out: Inhibition of HUVEC proliferation IC50
Procedure: Human Umbilical Vein Endothelial Cell (HUVEC) Proliferation Assay (BrdU Incorporation) Materials
HUVEC cells and EGM-MV (Endothelial cell growth medium—microvascular) were purchased from Clonetics (San Diego, Calif.). VEGF and bFGF were purchased from R&D Systems (Minneapolis, Minn.). Anti-BrdU antibody was obtained from Chemicon International (Temecula, Calif.).
HUVECs were routinely maintained in EGM-MV medium and were used within passage 7. HUVECs were plated at a density of 2500 cells/well in M199 medium containing 5% FBS (Hyclone) in type I collagen coated plate (Becton Dickinson). The plate was incubated at 37° C. overnight. The medium was removed by aspiration, and test compounds were added to each well in a volume of 0.1 ml/well in serum-free M199 medium. Compound concentrations ranged from 1.5 nM to 30 micromolar. The plate was incubated for 30 min at 37° C. Another 0.1 ml of serum-free M199 medium containing BSA and VEGF (or bFGF) was added to give a final concentration of 0.1% BSA and 10 ng/ml VEGF (0.3 ng/ml bFGF). The plate was incubated at 37° C. for 72 hrs. BrdU was added to each well after the first 48 hrs to give a concentration of 10 micromolar. The calorimetric ELISA assay was performed according to manufacturer's (Roche Molecular Sciences) instructions, with detection by absorbance reading at 450 nm. Results were plotted as concentration of test compound vs. absorbance to give an IC50 value for inhibition of BrdU incorporation.

SMILES | IC50 [nM]
CCN(c1ccc2c(C)n[nH]c2c1)c1ccnc(Nc2cc(S(=O)(=O)CC)ccc2OC)n1 [Example 26, N^4-ethyl-N^2-[5-(ethylsulfonyl)-2-methoxyphenyl]-N^4-(3-methyl-1H-indazol-6-yl)-2,4-pyrimidinediamine] | 201 to 500
Cc1n[nH]c2cc(N(C)c3ccnc(Nc4cccc(NS(C)(=O)=O)c4)n3)ccc12 [Example 27, N-[3-({4-[methyl(3-methyl-1H-indazol-6-yl)amino]-2-pyrimidinyl}amino)phenyl]methanesulfonamide] | 1 to 200
Cc1n[nH]c2cc(N(C)c3ccnc(Nc4cccc(CS(=O)(=O)C(C)C)c4)n3)ccc12 [Example 28, N^2-{3-[(isopropylsulfonyl)methyl]phenyl}-N^4-methyl-N^4-(3-methyl-1H-indazol-6-yl)-2,4-pyrimidinediamine] | 1 to 200
Cc1n[nH]c2cc(N(C)c3ccnc(Nc4ccc(CS(=O)(=O)C(C)C)cc4)n3)ccc12 [Example 29, N^2-{4-[(isopropylsulfonyl)methyl]phenyl}-N^4-methyl-N^4-(3-methyl-1H-indazol-6-yl)-2,4-pyrimidinediamine] | 1 to 200
COc1ccc(S(=O)(=O)CC(C)C)cc1Nc1nccc(Nc2ccc3c(C)n[nH]c3c2)n1 [Example 30, N^2-[5-(isobutylsulfonyl)-2-methoxyphenyl]-N^4-(3-methyl-1H-indazol-6-yl)-2,4-pyrimidinediamine] | 501 to 1000
CC(=O)Nc1cccc(Nc2nccc(N(C)c3ccc4c(C)n[nH]c4c3)n2)c1 [Example 31, N-[3-({4-[methyl(3-methyl-1H-indazol-6-yl)amino]-2-pyrimidinyl}amino)phenyl]acetamide] | 1 to 200
CCN(c1ccc2c(C)n[nH]c2c1)c1ccnc(Nc2cccc(NC(C)=O)c2)n1 [Example 32, N-[3-({4-[ethyl(3-methyl-1H-indazol-6-yl)amino]-2-pyrimidinyl}amino)phenyl]acetamide] | 1 to 200
COc1ccc(S(=O)(=O)Cc2cc(C)on2)cc1Nc1nccc(Nc2ccc3c(C)n[nH]c3c2)n1 [Example 33, N^2-(2-methoxy-5-{[(5-methyl-3-isoxazolyl)methyl]sulfonyl}phenyl)-N^4-(3-methyl-1H-indazol-6-yl)-2,4-pyrimidinediamine] | > 1000
COc1ccc(S(N)(=O)=O)cc1Nc1nccc(Nc2ccc3c(C)n[nH]c3c2)n1 [Example 34, 4-methoxy-3-({4-[(3-methyl-1H-indazol-6-yl)amino]-2-pyrimidinyl}amino)benzenesulfonamide] | 201 to 500
COc1ccc(S(=O)(=O)C(C)C)cc1Nc1nccc(N(C)c2ccc3c(C)n[nH]c3c2)n1 [Example 35, N^2-[5-(isopropylsulfonyl)-2-methoxyphenyl]-N^4-methyl-N^4-(3-methyl-1H-indazol-6-yl)-2,4-pyrimidinediamine] | 1 to 200
CCS(=O)(=O)c1ccc(OC)c(Nc2nccc(N(c3ccc4c(C)n[nH]c4c3)C(C)C)n2)c1 [Example 36, N^2-[5-(ethylsulfonyl)-2-methoxyphenyl]-N^4-isopropyl-N^4-(3-methyl-1H-indazol-6-yl)-2,4-pyrimidinediamine] | > 1000
CN(c1ccc2cn[nH]c2c1)c1ccnc(Nc2cccc(CS(C)(=O)=O)c2)n1 [Example 37, N^4-(1H-indazol-6-yl)-N^4-methyl-N^2-{3-[(methylsulfonyl)methyl]phenyl}-2,4-pyrimidinediamine] | 201 to 500
Cc1nn(C)c2cc(N(C)c3ccnc(Nc4cccc(CS(C)(=O)=O)c4)n3)ccc12 [Example 38, N^4-(1,3-dimethyl-1H-indazol-6-yl)-N^4-methyl-N^2-{3-[(methylsulfonyl)methyl]phenyl}-2,4-pyrimidinediamine] | 201 to 500
Cc1c2ccc(N(C)c3ccnc(Nc4cccc(CS(C)(=O)=O)c4)n3)cc2nn1C [Example 39, N^4-(2,3-dimethyl-2H-indazol-6-yl)-N^4-methyl-N^2-{3-[(methylsulfonyl)methyl]phenyl}-2,4-pyrimidinediamine] | 1 to 200
CCS(=O)(=O)c1ccc(OC)c(Nc2nccc(N(C)c3ccc4c(C)n(C)nc4c3)n2)c1 [Example 40, N^4-(2,3-dimethyl-2H-indazol-6-yl)-N^2-[5-(ethylsulfonyl)-2-methoxyphenyl]-N^4-methyl-2,4-pyrimidinediamine] | 1 to 200
CCC(=O)c1ccc(OC)c(Nc2nccc(Nc3ccc4c(C)n[nH]c4c3)n2)c1 [Example 41, 1-[4-methoxy-3-({4-[(3-methyl-1H-indazol-6-yl)amino]-2-pyrimidinyl}amino)phenyl]-1-propanone] | 501 to 1000
COc1ccc(S(=O)(=O)Nc2cccc(Nc3nccc(N(C)c4ccc5c(C)n[nH]c5c4)n3)c2)cc1 [Example 42, 4-methoxy-N-[3-({4-[methyl(3-methyl-1H-indazol-6-yl)amino]-2-pyrimidinyl}amino)phenyl]benzenesulfonamide] | 201 to 500

SMILES | IC50 [nM]
CNS(=O)(=O)c1ccc(OC)c(Nc2nccc(Nc3ccc4c(C)n[nH]c4c3)n2)c1 [Example 43, 4-methoxy-N-methyl-3-({4-[(3-methyl-1H-indazol-6-yl)amino]-2-pyrimidinyl}amino)benzenesulfonamide] | 201 to 500
Cc1n[nH]c2cc(N(CC#N)c3ccnc(Nc4ccc(CS(C)(=O)=O)cc4)n3)ccc12 [Example 44, [(3-methyl-1H-indazol-6-yl)(2-{4-[(methylsulfonyl)methyl]anilino}-4-pyrimidinyl)amino]acetonitrile] | 201 to 500
CCS(=O)(=O)c1ccc(OC)c(Nc2nccc(N(CC#N)c3ccc4c(C)n[nH]c4c3)n2)c1 [Example 45, [{2-[5-(ethylsulfonyl)-2-methoxyanilino]-4-pyrimidinyl}(3-methyl-1H-indazol-6-yl)amino]acetonitrile] | 501 to 1000
Cc1n[nH]c2cc(N(CC#N)c3ccnc(Nc4cccc(CS(C)(=O)=O)c4)n3)ccc12 [Example 46, [(3-methyl-1H-indazol-6-yl)(2-{3-[(methylsulfonyl)methyl]anilino}-4-pyrimidinyl)amino]acetonitrile] | 1 to 200
CNS(=O)(=O)c1ccc(OC)c(Nc2nccc(N(C)c3ccc4c(C)n[nH]c4c3)n2)c1 [Example 47, 4-methoxy-N-methyl-3-({4-[methyl(3-methyl-1H-indazol-6-yl)amino]-2-pyrimidinyl}amino)benzenesulfonamide] | 201 to 500
Cc1n[nH]c2cc(N(C)c3ccnc(Nc4ccc(C(N)=O)cc4)n3)ccc12 [Example 48, 4-({4-[methyl(3-methyl-1H-indazol-6-yl)amino]-2-pyrimidinyl}amino)benzamide] | 1 to 200
COc1cc(S(N)(=O)=O)ccc1Nc1nccc(N(C)c2ccc3c(C)n[nH]c3c2)n1 [Example 49, 3-methoxy-4-({4-[methyl(3-methyl-1H-indazol-6-yl)amino]-2-pyrimidinyl}amino)benzenesulfonamide] | 1 to 200
C#CCN(c1ccc2c(C)n[nH]c2c1)c1ccnc(Nc2cccc(CS(C)(=O)=O)c2)n1 [Example 50] | 201 to 500
C#CCN(c1ccc2c(C)n[nH]c2c1)c1ccnc(Nc2cccc(S(N)(=O)=O)c2)n1 [Example 51, 3-({4-[(3-methyl-1H-indazol-6-yl)(2-propynyl)amino]-2-pyrimidinyl}amino)benzenesulfonamide] | 201 to 500
Cc1n[nH]c2cc(N(C)c3ccnc(Nc4ccc(S(N)(=O)=O)cc4)n3)ccc12 [Example 52, 4-({4-[methyl(3-methyl-1H-indazol-6-yl)amino]-2-pyrimidinyl}amino)benzenesulfonamide] | 1 to 200
Cc1n[nH]c2cc(N(C)c3ccnc(Nc4cccc(S(C)(=O)=O)c4)n3)ccc12 [Example 53, N^4-methyl-N^4-(3-methyl-1H-indazol-6-yl)-N^2-[3-(methylsulfonyl)phenyl]-2,4-pyrimidinediamine] | 1 to 200
COc1ccc(S(N)(=O)=O)cc1Nc1nccc(N(C)c2ccc3c(C)n[nH]c3c2)n1 [Example 54, 4-methoxy-3-({4-[methyl(3-methyl-1H-indazol-6-yl)amino]-2-pyrimidinyl}amino)benzenesulfonamide] | 1 to 200
CCS(=O)(=O)c1ccc(OC)c(Nc2nccc(Nc3ccc4c(C)n[nH]c4c3)n2)c1 [Example 55, N^2-[5-(ethylsulfonyl)-2-methoxyphenyl]-N^4-(3-methyl-1H-indazol-6-yl)-2,4-pyrimidinediamine] | 1 to 200
Cc1n[nH]c2cc(N(C)c3ccnc(Nc4cccc(C(N)=O)c4)n3)ccc12 [Example 56, 3-({4-[methyl(3-methyl-1H-indazol-6-yl)amino]-2-pyrimidinyl}amino)benzamide] | 1 to 200
CCS(=O)(=O)c1ccc(Nc2nccc(N(C)c3ccc4c(C)n[nH]c4c3)n2)cc1 [Example 57, N^2-[4-(ethylsulfonyl)phenyl]-N^4-methyl-N^4-(3-methyl-1H-indazol-6-yl)-2,4-pyrimidinediamine] | 201 to 500
CCS(=O)(=O)NCc1ccc(Nc2nccc(N(C)c3ccc4c(C)n[nH]c4c3)n2)cc1 [Example 58, N-[4-({4-[methyl(3-methyl-1H-indazol-6-yl)amino]-2-pyrimidinyl}amino)benzyl]ethanesulfonamide] | 1 to 200
